Patent publication US11603570B2, “Methods for the detection and treatment of leukemias that are responsive to DOT1L inhibition” (MEMORIAL SLOAN KETTERING CANCER CENTER, priority 2013, dated 2023)
“Also recorded” adds a separate entry of the source. Read-outs that look alike come from different tables or passages of the source.

Assays:
SEMK2 = assay: Cell proliferation, SEMK2; type: cell-based; settings: Homo sapiens; MLL-translocated line SEMK2; FIG. 2
KOPN-8 = assay: Cell proliferation, KOPN-8; type: cell-based; settings: Homo sapiens; MLL-translocated line KOPN-8; FIG. 2
THP-1 = assay: Cell proliferation, THP-1; type: cell-based; settings: Homo sapiens; MLL-translocated line THP-1; FIG. 2
Jurkat = assay: Cell proliferation, Jurkat; type: cell-based; settings: Homo sapiens; non-MLL-translocated line Jurkat; FIG. 2
REH = assay: Cell proliferation, REH; type: cell-based; settings: Homo sapiens; non-MLL-translocated line REH; FIG. 2
HL-60 = assay: Cell proliferation, HL-60; type: cell-based; settings: Homo sapiens; non-MLL-translocated line HL-60; FIG. 2
EOL-1 = assay: Proliferation of MLL-PTD cell line EOL-1; type: cell-based, human; settings: 10 μM, 10-day period
H3K79me2 [1] = assay: H3K79 methylation in NUP98-NSD1 transformed cells; type: cell-based, mouse; settings: 10 μM
H3K79me2 [2] = assay: H3K79me2 Western blot in MLL-AF9 transformed cells; type: cell-based, mouse; settings: 10 μM, 10 days, FIG. 8A
[3] = tested on: NUP98-NSD1 transformed cells; assay: Annexin V apoptosis in NUP98-NSD1 transformed cells; type: cell-based, mouse; settings: 10 μM, 10 days; compared with MLL-AF9 transformed cells; FIG. 8B
Description: (§1) The percentage of Annexin V positive cells is shown.
(§2) Apoptosis was assessed by staining cells with Annexin V 10 days after treatment. The extent of apoptosis was compared to that found in MLL-AF9 transformed cells treated in a similar fashion.

[4] = tested on: MLL-AF9 transformed cells; assay: Annexin V apoptosis in MLL-AF9 transformed cells; type: cell-based, mouse; settings: 10 μM, 10 days; FIG. 8B
Description: as §1, §2

OCI-AML3 [5] = assay: Proliferation of OCI-AML3 (NPM1 mutant) cells; type: cell-based, human
Description: as §2
(§3) Cell numbers were assessed at multiple time points after treatment was initiated. […] Evidence of differentiation was assessed after DOT1L inhibition via characterization of cell surface marker expression—such as CD11b and CD15 expression, both of which are induced upon differentiation of myelomonocytic leukemia cells.
(§4) MTT assays were performed on day 11.

OCI-AML2 = assay: Proliferation of OCI-AML2 (DNTM3A mutant) cells; type: cell-based, human
Description: as §2, §3, §4

[6] = tested on: Npm1^cA/+Rosa^SB/+ AML cells; assay: Leukemia initiating potential in vivo, mice injected with pre-treated Npm1^cA/+Rosa^SB/+ cells; parameters: species or system mouse
Text: FIGS. 13A-13C show the effects of DOT1L inhibition on leukemia initiating potential in vivo. […] FIG. 13B indicates differentiation in EPZ00477 treated cells (and not in cells exposed to only DMSO). […] Numbers of white blood cells and platelets are expressed as number of cells per microliter (μL) of blood. Hemoglobin levels are expressed in grams per deciliter (g/dl).
Furthermore, peripheral blood smears stained with Wright-Giemsa stain indicate differentiation in EPZ00477 treated cells (and not in cells exposed to only DMSO) (FIG. 13B).

[7] = tested on: MLL-AF9 transformed cells; assay: Cell cycle arrest and apoptosis of MLL-AF9 transformed cells; type: cell-based, murine
MV4-11 = settings: Daigle, 2011; cited from earlier work
Molm-13 = settings: Daigle, 2011; cited from earlier work
H3K79me2 [8] = settings: 0.048, 0.195, 0.781, 3.12, and 12.5 μm; FIG. 1A; cited from earlier work
H3K79me2 [9] = settings: 0.048, 0.195, 0.781, 3.12, and 12.5 μm; FIG. 1A; cited from earlier work; remark: listed apart in the source
MLL xenograft = settings: in vivo administration; cited from earlier work
H3K79 methylation = settings: MLL-translocated leukemia cell lines; cited from earlier work
HOXA9 and MEIS1 = settings: cited from earlier work
[10] = tested on: MLL germline leukemia cell lines; settings: cited from earlier work
Kasumi-1 = assay: Cell proliferation, Kasumi-1 (AML1-ETO)
OCI-AML3 [11] = assay: Apoptosis and cell cycle in OCI-AML3 cells
[12] = tested on: MLL-translocated cell lines; assay: Proliferation of MLL-translocated cell lines; settings: versus MLL-germline lines; FIG. 2
OCI-AML3 [13] = assay: Differentiation marker CD11b in OCI-AML3 cells; settings: 10 μM, days 4, 7, and 10; FIG. 11B
[14] = tested on: Npm1^cA/+Rosa^SB/+ AML cells; assay: Colony formation of Npm1^cA/+Rosa^SB/+ AML cells; settings: 10 μM; after primary and secondary transplantation; FIG. 12A, B
[15] = tested on: Npm1^cA/+Flt3^ITD/+ AML cells; assay: Colony formation of Npm1^cA/+Flt3^ITD/+ AML cells; settings: 10 μM, after primary and secondary transplantation, FIG. 12A, B
[16] = tested on: MLL germline leukemia cell lines; assay: Proliferation of MLL germline leukemia cell lines; settings: 10 μM; cell lines that do not show elevated HOXA gene expression; FIG. 2
[17] = day 19 complete blood counts, FIG. 13C

CC(C)N(CCCNC(=O)Nc1ccc(C(C)(C)C)cc1)C[C@H]1O[C@@H](n2ccc3c(N)ncnc32)[C@H](O)[C@@H]1O [EPZ004777, 1-(3-((((2R,3S,4R,5R)-5-(4-Amino-7H-pyrrolo[2,3-d]pyrimidin-7-yl)-3,4-dihydroxytetrahydrofuran-2-yl)methyl)(isopropyl)amino)propyl)-3-(4-(tert-butyl)phenyl)urea]
IC50 (SEMK2): 1.7 µM | IC50 (KOPN-8): 0.62 µM | IC50 (THP-1): 3 µM | IC50 (Jurkat): > 50 µM | IC50 (REH): 14 µM | IC50 (HL-60): > 50 µM | proliferation (EOL-1): significantly inhibited | HOX promoter associated H3K79 methylation (H3K79me2 [1]; 7 day treatment): significantly reduced | global H3K79me2 level (Western blotting) (H3K79me2 [1]; 10 days, NUP98-NSD1 cells, FIG. 8A): completely abrogated; also recorded: decrease | global H3K79me2 level (Western blotting) (H3K79me2 [2]): completely abrogated; also recorded: decrease | apoptosis (Annexin V staining) [3]: more apoptosis; also recorded: induces apoptosis | apoptosis (Annexin V staining) [4]: induces apoptosis | proliferation / cell number versus DMSO (OCI-AML3 [5]; 10 μM, compared with MLL-translocated line (Molm-13), FIG. 7C, 10): as sensitive; also recorded: equally, if not more sensitive; also recorded: dramatically inhibited | IC50 (OCI-AML3 [5]; Homo sapiens, OCI-AML-3, 264 h, MTT assays on day 11, concentrations up to 10 μM): 0.15 µM | cell number versus DMSO (OCI-AML2; 10 μM, compared with Molm-13, FIG. 10): equally, if not more sensitive; also recorded: sensitive | IC50 (OCI-AML2; Homo sapiens, OCI-AML2, 264 h, MTT assays on day 11, concentrations up to 10 μM): 0.15 µM | survival (Kaplan-Meier) ([6]; cells pre-treated 6 days with 10 μM, FIG. 13A): extended survival time; also recorded: prolonged survival | peripheral blood smears, Wright-Giemsa stain ([6]; day 19, cells pre-treated 6 days with 10 μM, FIG. 13B): differentiation | levels of hemoglobin [6, 17]: slight increase | number of white blood cells [6, 17]: significant reduction | platelet counts [6, 17]: slight increase | response to DOT1L inhibition [7]: cell cycle arrest and apoptosis | growth of MV4-11 leukemia cells (MV4-11): exquisitely sensitive | growth of the MLL-AF9 cell line Molm-13 (Molm-13): exquisitely sensitive | H3K79me2 histone methylation (H3K79me2 [8]): inhibited | H3K79me2 histone methylation (H3K79me2 [9]): inhibited | survival (MLL xenograft): prolonged survival; also recorded: extension of survival | concentration range inhibiting H3K79 methylation (H3K79 methylation): mid-nM range | MLL fusion driven gene expression, including HOXA9 and MEIS1 (HOXA9 and MEIS1): transcriptional repression; also recorded: dose-dependent inhibition | anti-proliferative effect ([10]; MLL germline leukemia cell lines): no anti-proliferative effect | factor by which leukemic cells lacking MLL fusions are less sensitive [10]: approximately 100 | proliferation (cell counts) (Kasumi-1; 10 μM, AML1-ETO (Kasumi) cells, FIG. 3B, 7D): not sensitive; also recorded: insensitive | IC50 (Kasumi-1; Homo sapiens, Kasumi 1, read-out: IC50 for cell proliferation): 33 µM | cell cycle status by flow cytometry (OCI-AML3 [11]): Sub G1 accumulation | apoptotic cells (Annexin V staining) (OCI-AML3 [11]; 10 μM, 4, 7, or 10 days, FIG. 11A): tremendous increase in apoptotic cells; also recorded: apoptosis | inhibition of proliferation of MLL-translocated cell lines [12]: selectively inhibits | differentiation, cell surface marker CD11b expression (OCI-AML3 [13]): increased differentiation | colony formation potential [14]: significant reduction | colony formation potential [15]: significant reduction; also recorded: reduce the colony formation potential | colony formation potential ([15]; listed as EPZ00477): significant reduction | influence on proliferation [16]: does not influence
